Active and inactive are the calls of the source.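 How the source made its calls: active means half-effect concentration at most 10 µM, response change at least 30% across doses, and a curve fit passing quality checks; inactive means the rest.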
Target: Cell division control protein 42 homolog (Homo sapiens) (UniProt P60953)
Experiment: inhibition of fluorescent GTP binding to wildtype Cdc42 – biochemical, protein source comparison, flow cytometry beads, Bodipy-FL-GTP, mechanism study for Ras-family GTPase inhibitor project, late-stage follow-up (AID 720688)
Conditions: GST-Cdc42 beads

Sequence of Cell division control protein 42 homolog (Homo sapiens) (P60953 whole entry, looked up): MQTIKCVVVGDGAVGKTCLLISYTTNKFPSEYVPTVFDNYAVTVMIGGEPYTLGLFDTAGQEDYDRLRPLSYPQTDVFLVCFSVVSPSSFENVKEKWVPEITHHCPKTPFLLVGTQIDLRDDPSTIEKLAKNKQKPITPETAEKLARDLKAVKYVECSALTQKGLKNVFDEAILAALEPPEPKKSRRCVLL

Row | EC50 (protein source 2) | % response remaining, lower = inhibition (protein source 2, at 100 µM (top of the series)) | Compound
1 | 18.6 µM |  | CC1(C)Cc2c(sc(NC(=S)NC(=O)c3cccc(N=[N+]=[N-])c3)c2C(=O)O)CO1
2 |  | inactive | CC1(C)Cc2c(sc(NC(=S)NC(=O)c3ccc(N=[N+]=[N-])cc3)c2C(=O)O)CO1

From PubChem BioAssay AID720688 (NMMLSC, 2013)
